Literature values as cited in patent US20260284015A1, “DOSAGE REGIME OF CRINECERFONT FOR TREATING CONGENITAL ADRENAL HYPERPLASIA” (Neurocrine Biosciences, Inc., priority 2023, published 2026).

conditions: glucocorticoid dose conversion factor relative to hydrocortisone

Q: Which “Hydrocortisone dose equivalent conversion” value does the source give for `C[C@@H]1C[C@H]2[C@@H]3CCC4=CC(=O)C=C[C@]4(C)[C@@]3(F)[C@@H](O)C[C@]2(C)[C@@]1(O)C(=O)CO` [Dexamethasone] here?
A: Its value is 60×.

Q: With `C[C@H]1C[C@@H]2[C@H]([C@@H](O)C[C@@]3(C)[C@H]2CC[C@]3(O)C(=O)CO)[C@@]2(C)C=CC(=O)C=C12` [Methylprednisolone] as the molecule, how does the “Hydrocortisone dose equivalent conversion” value read?
A: Its value is 4×.

Q: For `C[C@]12C=CC(=O)C=C1CC[C@@H]1[C@@H]2[C@@H](O)C[C@@]2(C)[C@H]1CC[C@]2(O)C(=O)CO` [Prednisolone], which “Hydrocortisone dose equivalent conversion” value is on record?
A: The value was 4×.
